Values joined by “and” are separate entries in the source; they are usually repeats but may differ in a detail not shown here. Identical values can stand only once. Like-named read-outs stand apart in the source and are kept apart here.
Columns and labels:
[1] = First-in-human SAD and MAD study, pharmacokinetics; type: in vivo
Method: A first-in-human study was conducted to evaluate the safety, tolerability and pharmacokinetics (PK) of single and multiple ascending doses (SAD and MAD) of oral Compound A.
In the SAD Phase, 32 healthy volunteers were randomized (3:1) to Compound A (5, 15, 20, 25 or 30 mg) or placebo. The study featured an adaptive design. A crossover food effect cohort (N=10) was also completed with single doses of 20 mg. A sub-set of 8 male subjects were also assessed with Transcranial Magnetic Stimulation (TMS) for effects on cortical excitability (see Examples 4 and 5).
Repeat doses of Compound A (15 mg QD) were evaluated in a fasted and fed state over 7 and 10 days, respectively. Repeat doses of Compound A (25 mg QD) were also evaluated in a fed state over 10 days.
Compound A was formulated as an immediate release capsule. Serial plasma PK samples were collected for all cohorts. Safety evaluations throughout the study included adverse event (AE) monitoring, clinical laboratory tests, vital signs, ECGs, physical examinations and Columbia-Suicide Severity Rating Scale.

[2] = test system: corticospinal excitability; assay: TMS crossover study, TMS-EMG resting motor threshold (RMT); type: in vivo, human; settings: for Resting Motor Threshold, post-dose change from baseline: individual subjects; for Resting Motor Threshold, post-dose change from baseline (Mean): mean of subjects
Method: PD assessments included resting state electroencephalogram (RS-EEG); TMS-EMG measurements including resting motor threshold (RMT), active motor threshold (AMT), and short-interval intracortical inhibition (SICI); and TMS-EEG measurements. All 20 subjects underwent TMS-EMG and TMS-EEG sessions prior to dosing on Days 1 and 7 and at 2 and 4 h after dosing. […] For the 6 h timepoint, RMT was performed for 16 subjects, and AMT, EEG resting state, and TMS-EEG was performed for 8 subjects. RMT and AMT values are reported as percentages of maximum stimulator output (% MSO). Drug-induced modulation of TMS-EMG parameters were evaluated over the 3 timepoints (2, 4, and 6 h) and for the timepoint with the highest drug exposure. Individual and averaged RMT values at baseline and change each timepoint for Compound A and placebo for all 20 subjects are presented in Table 18. […] In addition, RMT could not be registered for Subject 912 at 2 hours after Compound A intake.

[3] = human, plasma, oral, 25 mg, MAD, 25 mg QD Fed, Day 1, N=6, mean
[4] = human, plasma, oral, 25 mg, MAD, 25 mg QD Fed, Day 10, N=6, mean
[5] = human, plasma, oral, 25 mg, SAD, 25 mg fed standard breakfast, N=6, Mean ± SD
[6] = human, plasma, oral, 30 mg, SAD, 30 mg fasted, N=6, Mean ± SD
[7] = single 20 mg dose, 2 h post-dose
[8] = single 20 mg dose, 4 h post-dose
[9] = single 20 mg dose, 6 h post-dose

With `Cc1cc(N2CCc3cc(F)ccc3C2)cc(C)c1NC(=O)CC(C)(C)C` [Compound A, N-[4-(6-fluoro-3,4-dihydro-1H-isoquinolin-2-yl)-2,6-dimethylphenyl]-3,3-dimethylbutanamide] the AUC(0-t) ([1]; human, plasma, oral, 20 mg, SAD, 20 mg fasted, N=6, tLast 72 h, Mean ± SD, read-out: AUC0-t) was 709 ± 337 ng·h/mL, the Cmax [1, 3] was 49.6 ng/mL and the Tmax [1, 3] was 4.38 h. It also gave an AUC(0-t) ([1]; human, plasma, oral, 25 mg, MAD, 25 mg QD Fed, Day 1, N=6, mean, read-out: AUC0-24) of 592 ng·h/mL, a Cmax [1, 4] of 96.7 ng/mL and a Tmax [1, 4] of 4.99 h. The AUC(0-t) ([1]; human, plasma, oral, 25 mg, MAD, 25 mg QD Fed, Day 10, N=6, mean, read-out: AUC0-24) was 1720 ng·h/mL, the AUC(0-t) ([1]; human, plasma, oral, 25 mg, MAD, 25 mg QD Fed, Day 10, N=6, mean, read-out: AUC0-t) was 8010 ng·h/mL and the Cmax [1, 5] was 45.8 ± 14.3 ng/mL. The Tmax [1, 5] was 4.51 ± 1.22 h, the AUC(0-t) ([1]; human, plasma, oral, 25 mg, SAD, 25 mg fed standard breakfast, N=6, Mean ± SD, read-out: AUC0-24) was 482 ± 130 ng·h/mL and the AUC(0-t) ([1]; human, plasma, oral, 25 mg, SAD, 25 mg fed, N=6, tLast 146 h, Mean ± SD, read-out: AUC0-t) was 1470 ± 270 ng·h/mL. The Cmax [1, 6] was 35.5 ± 33.5 ng/mL, the Tmax [1, 6] was 3.17 ± 1.48 h and the AUC(0-t) ([1]; human, plasma, oral, 30 mg, SAD, 30 mg fasted, N=6, Mean ± SD, read-out: AUC0-24) was 369 ± 219 ng·h/mL. For the same molecule, the AUC(0-t) ([1]; human, plasma, oral, 30 mg, SAD, 30 mg fasted, N=6, tLast 72 h, Mean ± SD, read-out: AUC0-t) was 837 ± 280 ng·h/mL, the half-life at 10 days ([1]; human, plasma, oral, MAD, 15 mg Fed, Day 10, N=6, mean) was 239 h and the half-life at 7 days ([1]; human, plasma, oral, MAD, 15 mg QD Fasted, Day 7, N=6, mean) was 167 h. It also gave a half-life at 10 days ([1]; human, plasma, oral, MAD, 25 mg QD Fed, Day 10, N=6, mean) of 218 h, a half-life ([1]; human, plasma, oral, SAD, 5 mg fasted, N=3, Mean ± SD, read-out: T1/2 (converted)) of 49.2 ± 31.1 h and a half-life ([1]; human, plasma, oral, SAD, 15 mg fasted, N=3, Mean ± SD, read-out: T1/2 (converted)) of 41.9 ± 31.1 h. The half-life ([1]; human, plasma, oral, SAD, 20 mg fasted, N=6, Mean ± SD, read-out: T1/2 (converted)) was 48.9 ± 14.7 h, the half-life ([1]; human, plasma, oral, SAD, 25 mg fed standard breakfast, N=6, Mean ± SD, read-out: T1/2 (converted)) was 97.2 ± 18 h and the half-life ([1]; human, plasma, oral, SAD, 30 mg fasted, N=6, Mean ± SD, read-out: T1/2 (converted)) was 63.4 ± 28.2 h. The half-life ([1]; human, plasma, oral, immediate release formulation, read-out: effective half-life) was greater than 24 h, the “dose proportionality of exposure” value ([1]; multiple doses, fed state) was “exposure increased in proportion to dose” and the “apparent steady state achieved” value ([1]; multiple doses, 90% CI of successive day's exposure ratio within 0.8-1.25) was 6 to 9 days. For the same molecule, the “peak to trough ratio” value ([1]; once a day dosing) was “low”, the “attainment of steady state” value ([1]; once per day dosing, without titration) was 1 week and the RMT ([2]; 20 mg single dose) was “significant increase in RMT”. For the same molecule, the “RMT increase, mean±SEM” value ([2]; 20 mg, 6 h) was 4.9±0.7%, the “effect on RMT” value ([2]; 20 mg, 6 h post-dose) was greater than 4% and the “Resting Motor Threshold, post-dose change from baseline” value [2, 7] was 3 % MSO (4×) and 1 % MSO (4×) and 0 % MSO (7×) and 2 % MSO (3×) and 6 % MSO. For the same molecule, the “Resting Motor Threshold, post-dose change from baseline” value [2, 8] was 7 % MSO (2×) and 1 % MSO (4×) and 0 % MSO (4×) and 6 % MSO (2×) and 3 % MSO (3×) and 5 % MSO and 10 % MSO and 2 % MSO (2×) and 4 % MSO, the “Resting Motor Threshold, post-dose change from baseline” value [2, 9] was 8 % MSO (2×) and 4 % MSO (3×) and 6 % MSO (2×) and 10 % MSO and 1 % MSO (2×) and 0 % MSO and 7 % MSO (3×) and 3 % MSO (2×) and the “Resting Motor Threshold, post-dose change from baseline (Mean)” value [2, 7] was 1.5 % MSO. For the same molecule, the “Resting Motor Threshold, post-dose change from baseline (Mean)” value [2, 8] was 3.1 % MSO, the “Resting Motor Threshold, post-dose change from baseline (Mean)” value [2, 9] was 4.9 % MSO and the “RMT compared to time matched placebo” value ([2]; single 20 mg dose, 2, 4, and 6 h post-dose) was “increased RMT from baseline”.

From patent US11135214B2, “Methods for enhancing the bio availability and exposure of a voltage-gated potassium channel opener” (priority 2018, dated 2021)
